Measured values as given in paper PMC4036227 (Journal of medicinal chemistry, 2013).
Read-outs that look alike come from different tables or passages of the source.

Legend:
[1] = target: T1, S31N mutant M2 proton channel (full length AM2 protein) (Influenza A virus, UniProt P0DOF5, S31N); format: biochemical; details: 100 µM
A/WSN/33-N31S (WT) virus = format: cell-based
[2] = target: T1, S31N mutant M2 proton channel (full length AM2 protein); details: cited from earlier work

Compound	S31N % inhibition (TEVC) [1]	other results
NC12CC3CC(CC(C3)C1)C2 [Compound 1, amantadine]	35 ± 2/ %	
CC(N)C12CC3CC(CC(C3)C1)C2 (stereo not shown) [Compound 2, rimantadine]	13%	
COC(=O)[C@H](Cc1cnc[nH]1)NCC12CC3CC(CC(C3)C1)C2 [Compound 3]	0%	
C[C@@H]1[C@@H](/N=C/c2ccc(O)cc2)C[C@H]2C[C@@H]1C2(C)C [Compound 4]	0%	
c1ccc(CNC23CC4CC(CC(C4)C2)C3)nc1 [Compound 33]	0%	
Oc1ccc(CNC23CC4CC(CC(C4)C2)C3)c(O)c1 [Compound 44, 4-(adamantan-1-ylaminomethyl)-benzene-1,3-diol]		inhibition of plaque formation, WT virus (A/WSN/33-N31S (WT) virus): complete inhibition
pinanamine		S31N % inhibition (TEVC) [2]: 0%
